Results from US11053230B2, “3-hydroxy-imidazolidin-4-one compounds as inhibitors of indoleamine 2,3-dioxygenase” (Netherlands Translational Research Center B.V., priority 2017, dated 2021).
Values joined by “and” are separate entries in the source; they are usually repeats but may differ in a detail not shown here. Identical values can stand only once.

Target: T1, IDO1 (Homo sapiens, UniProt P14902)
T1 construct: Recombinant full-length IDO1 (Seegers, N., et al.) and all other assay components were diluted in IDO1 reaction buffer; made in house
T1 sequence (P14902 whole entry): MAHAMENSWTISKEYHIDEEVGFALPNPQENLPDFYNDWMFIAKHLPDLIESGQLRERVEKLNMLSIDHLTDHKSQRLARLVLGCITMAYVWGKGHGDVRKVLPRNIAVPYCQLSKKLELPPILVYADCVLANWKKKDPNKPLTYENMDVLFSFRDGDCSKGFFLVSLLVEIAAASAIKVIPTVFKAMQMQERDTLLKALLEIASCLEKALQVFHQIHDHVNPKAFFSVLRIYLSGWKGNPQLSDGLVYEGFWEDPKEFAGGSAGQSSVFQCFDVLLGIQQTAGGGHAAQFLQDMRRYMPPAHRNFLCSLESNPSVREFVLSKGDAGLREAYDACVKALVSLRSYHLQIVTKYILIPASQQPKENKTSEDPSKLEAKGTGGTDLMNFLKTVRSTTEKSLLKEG
Experiment: Biochemical IDO1 assay (NFK GreenScreen)
Settings: NFK GreenScreen; 25 nM IDO1, 100 μM L-tryptophan; read-out: IC50, inhibitory potency on IDO1
Description: Inhibition of IDO1 activity can be measured by determining the enzymatic conversion of L-tryptophan into N-formylkynurenine (NFK) in a reaction mixture containing IDO1 and test compound. The formation of NFK can be detected directly by, for instance, high-performance liquid chromatography (HPLC) methods, or by intrinsic fluorescence.
Compounds were serially diluted in dimethylsulfoxide (DMSO) and finally in IDO1 reaction buffer, consisting of 50 mM NaH2PO4, pH7.0, supplemented with 0.05% Tween-20 (cat. No. P7949; Sigma Aldrich) and 1% glycerol. Recombinant full-length IDO1 (Seegers, N., et al.) and all other assay components were diluted in IDO1 reaction buffer. […] Subsequently, 10 μl of 0.4 mM of the substrate L-tryptophan was added, i.e., the final concentration of L-tryptophan was 100 μM. The DMSO concentration in the assay was 0.3%. […] Incubation was continued for 60 min at room temperature. Then, 10 μl of NFK Green™ (NTRC, Oss, The Netherlands) was added, the plate was sealed, and the reaction was developed for 3 hours at 37° C. To determine the production of N-formyl kynurenine (NFK), the seal was removed and fluorescence was read on an EnVision multimode reader (Perkin Elmer, Waltham, Mass., USA). IC50 were calculated using XLfit™ software (ID Business Solutions, Ltd., Surrey, U.K.).

Structure (SMILES) | IC50
N#Cc1csc(C2N(O)C(=O)CN2C(=O)c2c(F)cccc2F)c1 (stereo not drawn) [Example 30, 5-[1-(2,6-Difluorobenzoyl)-3-hydroxy-4-oxo-imidazolidin-2-yl]thiophene-3-carbonitrile] | ≤ 5000 nM and 1000 to 5000 nM
NS(=O)(=O)NCCCc1cc(F)c(C(=O)N2CC(=O)N(O)C2c2cc(Br)cs2)c(F)c1 (stereo not drawn) [Example 93, 2-(4-Bromo-2-thienyl)-1-[2,6-difluoro-4-[3-(sulfamoylamino)propyl]benzoyl]-3-hydroxy-4-oxo-imidazolidine] | ≤ 1000 nM
C[C@@H](c1ccccc1)N1CC(=O)N(O)C1c1ccc(Br)s1 (single isomer, unassigned) [Example 120b] | ≤ 1000 nM
O=C1CN(C(=O)c2ccccc2F)C(c2ccc(Br)s2)N1O (stereo not drawn) [Example 2, 2-(5-Bromo-2-thienyl)-1-(2-fluorobenzoyl)-3-hydroxy-imidazolidin-4-one] | ≤ 1000 nM
C=Cc1ccc(F)c(C(=O)N2CC(=O)N(O)C2c2cc(Br)cs2)c1F (stereo not drawn) [Example 128, 2-(4-Bromo-2-thienyl)-1-(2,6-difluoro-3-vinyl-benzoyl)-3-hydroxy-imidazolidin-4-one] | ≤ 1000 nM
C[C@@H](c1ccccc1)N1CC(=O)N(O)C1c1csc(Br)c1 (single isomer, unassigned) [Example 121b] | ≤ 1000 nM
C#Cc1ccc(F)c(C(=O)N2CC(=O)N(O)C2c2cc(Br)cs2)c1F (stereo not drawn) [Example 127, 2-(4-Bromo-2-thienyl)-1-(3-ethynyl-2,6-difluoro-benzoyl)-3-hydroxy-imidazolidin-4-one] | ≤ 1000 nM
O=C1CN(Cc2c(F)cccc2F)C(c2cc(Br)cs2)N1O (single isomer, unassigned) [Example 45a, 2-(4-Bromo-2-thienyl)-1-[(2,6-difluorophenyl)methyl]-3-hydroxy-imidazolidin-4-one] | ≤ 5000 nM and 1000 to 5000 nM
O=C1CN(C(=O)c2ccc(Cl)cc2Cl)C(c2cc(Br)cs2)N1O (stereo not drawn) [Example 68, 2-(4-Bromo-2-thienyl)-1-(2,4-dichlorobenzoyl)-3-hydroxy-imidazolidin-4-one] | ≤ 5000 nM and 1000 to 5000 nM
O=C1CN(C(=O)c2c(F)ccc(Br)c2F)C(c2csc(Br)c2)N1O (stereo not drawn) [Example 101, 1-(3-Bromo-2,6-difluoro-benzoyl)-2-(5-bromo-3-thienyl)-3-hydroxy-imidazolidin-4-one] | ≤ 1000 nM
O=C1CN(C(=O)c2c(F)cc(C3CC3)cc2F)C(c2cc(Br)cs2)N1O (stereo not drawn) [Example 82, 2-(4-Bromo-2-thienyl)-1-(4-cyclopropyl-2,6-difluoro-benzoyl)-3-hydroxy-imidazolidin-4-one] | ≤ 1000 nM
O=C1CN(C(=O)c2c(F)ccc(C(F)(F)F)c2F)C(c2csc(Br)c2)N1O (stereo not drawn) [Example 103, 2-(5-Bromo-3-thienyl)-1-[2,6-difluoro-3-(trifluoromethyl)benzoyl]-3-hydroxy-imidazolidin-4-one] | ≤ 1000 nM
CSc1ccc(C2N(O)C(=O)CN2C(=O)c2c(F)cccc2F)s1 (stereo not drawn) [Example 14, 1-(2,6-Difluorobenzoyl)-3-hydroxy-2-(5-methylsulfanyl-2-thienyl)imidazolidin-4-one] | ≤ 5000 nM and 1000 to 5000 nM
O=C1CN(C(=O)c2c(F)cccc2C(F)(F)F)C(c2csc(Br)c2)N1O (stereo not drawn) [Example 100, 2-(5-Bromo-3-thienyl)-1-[2-fluoro-6-(trifluoromethyl)benzoyl]-3-hydroxy-imidazolidin-4-one] | ≤ 5000 nM and 1000 to 5000 nM
O=C1CN(Cc2ccccc2F)C(c2cc(Br)cs2)N1O (stereo not drawn) [Example 43, 2-(4-Bromo-2-thienyl)-1-[(2-fluorophenyl)methyl]-3-hydroxy-imidazolidin-4-one] | ≤ 1000 nM
N#Cc1cc(F)c(C(=O)N2CC(=O)N(O)C2c2cc(Br)cs2)c(F)c1 (stereo not drawn) [Example 117, 4-[2-(4-Bromo-2-thienyl)-3-hydroxy-4-oxo-imidazolidine-1-carbonyl]-3,5-difluoro-benzonitrile] | ≤ 1000 nM
O=C1CN(C(=O)c2c(F)cccc2F)C(c2csc([N+](=O)[O-])c2)N1O (stereo not drawn) [Example 20, 1-(2,6-Difluorobenzoyl)-3-hydroxy-2-(5-nitro-3-thienyl)imidazolidin-4-one] | ≤ 1000 nM
O=C1CN(C(=O)c2c(F)cccc2F)C(c2nc(Br)cs2)N1O (stereo not drawn) [Example 22, 2-(4-Bromothiazol-2-yl)-1-(2,6-difluorobenzoyl)-3-hydroxy-imidazolidin-4-one] | ≤ 5000 nM and 1000 to 5000 nM
C#Cc1csc(C2N(O)C(=O)CN2C(=O)c2c(F)cccc2F)c1 (stereo not drawn) [Example 1, 1-(2,6-Difluorobenzoyl)-2-(4-ethynyl-2-thienyl)-3-hydroxy-imidazolidin-4-one] | ≤ 1000 nM
O=C1CN(C(=O)c2cccc(Cl)c2Cl)C(c2cc(Br)cs2)N1O (stereo not drawn) [Example 69, 2-(4-Bromo-2-thienyl)-1-(2,3-dichlorobenzoyl)-3-hydroxy-imidazolidin-4-one] | ≤ 1000 nM
O=C1CN(C(=O)c2c(F)cccc2F)C(c2cc(Br)cs2)N1O (single isomer, unassigned) [Example 48b, 2-(4-Bromo-2-thienyl)-1-(2,6-difluorobenzoyl)-3-hydroxy-imidazolidin-4-one] | ≤ 1000 nM
O=C1CN(C(=O)c2c(F)ccc([N+](=O)[O-])c2F)C(c2cc(Br)cs2)N1O (stereo not drawn) [Example 106, 2-(4-Bromo-2-thienyl)-1-(2,6-difluoro-3-nitro-benzoyl)-3-hydroxy-imidazolidin-4-one] | ≤ 1000 nM
COc1ccc(F)c(C(=O)N2CC(=O)N(O)C2c2csc(Br)c2)c1F (stereo not drawn) [Example 104, 2-(5-Bromo-3-thienyl)-1-(2,6-difluoro-3-methoxy-benzoyl)-3-hydroxy-imidazolidin-4-one] | ≤ 1000 nM
O=C1CN(C(=O)c2c(F)cc(C#CC3CCCCC3)cc2F)C(c2cc(Br)cs2)N1O (stereo not drawn) [Example 78, 2-(4-Bromo-2-thienyl)-1-[4-(2-cyclohexylethynyl)-2,6-difluoro-benzoyl]-3-hydroxy-imidazolidin-4-one] | ≤ 1000 nM
O=C1CN(C(=O)c2ccccc2F)C(c2cc(Br)cs2)N1O (stereo not drawn) [Example 9, 2-(4-Bromo-2-thienyl)-1-(2-fluorobenzoyl)-3-hydroxy-imidazolidin-4-one] | ≤ 1000 nM
O=C1CN(C(=O)c2c(F)cccc2F)C(c2ccc(Br)s2)N1O (single isomer, unassigned) [Example 49b, 2-(5-Bromo-2-thienyl)-1-(2,6-difluorobenzoyl)-3-hydroxy-imidazolidin-4-one] | ≤ 1000 nM
C[C@@H](c1ccccc1)N1CC(=O)N(O)C1c1cc(Br)cs1 (single isomer, unassigned) [Example 118b] | ≤ 1000 nM
N#Cc1csc(C2N(O)C(=O)CN2C(=O)c2ccccc2F)c1 (stereo not drawn) [Example 31, 5-[1-(2-Fluorobenzoyl)-3-hydroxy-4-oxo-imidazolidin-2-yl]thiophene-3-carbonitrile] | ≤ 5000 nM and 1000 to 5000 nM
O=C1CN(Cc2ccccc2F)C(c2csc(Br)c2)N1O (stereo not drawn) [Example 42, 2-(5-Bromo-3-thienyl)-1-[(2-fluorophenyl)methyl]-3-hydroxy-imidazolidin-4-one] | ≤ 1000 nM

Same assay, conditions: stated in the synthesis examples; assay not named

Structure (SMILES) | relative activity of the separated isomers
C[C@@H](c1ccccc1)N1CC(=O)N(O)C1c1ccc(Br)s1 (single isomer, unassigned) [Example 120b] | most active isomer
C[C@@H](c1ccccc1)N1CC(=O)N(O)C1c1csc(Br)c1 (single isomer, unassigned) [Example 121b] | most active isomer
O=C1CN(Cc2c(F)cccc2F)C(c2cc(Br)cs2)N1O (single isomer, unassigned) [Example 45a, 2-(4-Bromo-2-thienyl)-1-[(2,6-difluorophenyl)methyl]-3-hydroxy-imidazolidin-4-one] | less active isomer
C[C@@H](c1ccccc1)N1CC(=O)N(O)C1c1csc(Br)c1 (single isomer, unassigned) [Example 121a] | less active isomer
O=C1CN(C(=O)c2c(F)cccc2F)C(c2cc(Br)cs2)N1O (single isomer, unassigned) [Example 48b, 2-(4-Bromo-2-thienyl)-1-(2,6-difluorobenzoyl)-3-hydroxy-imidazolidin-4-one] | most active isomer
O=C1CN(C(=O)c2c(F)cccc2F)C(c2ccc(Br)s2)N1O (single isomer, unassigned) [Example 49b, 2-(5-Bromo-2-thienyl)-1-(2,6-difluorobenzoyl)-3-hydroxy-imidazolidin-4-one] | most active isomer
C[C@@H](c1ccccc1)N1CC(=O)N(O)C1c1cc(Br)cs1 (single isomer, unassigned) [Example 118b] | most active isomer
